Test results from PubChem BioAssay (NCI).
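Growth conditions: 96-well plates. Treatment: test compound, 48 hours, 5 concentrations. Analysis: linear interpolation between bracketing concentrations; unreached endpoints set to highest concentration. TGI denotes the concentration required for complete inhibition of growth.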

Test system: NCI-H23 lung
Test: NCI anticancer screen, dose series, 48 h

Row | SMILES | TGI [µM]
1 | CC(C)(C)OC(=O)N(CCCCN(CCCNC(=O)C(F)(F)F)C(=O)OC(C)(C)C)CCCNC(=O)C(F)(F)F | > 100
2 | C=CCCON(C(=O)OC(C)(C)C)C(C)(C)C | > 100
3 | CCOC(=O)Nc1[nH]cc(-c2ccccc2)c1C#N | > 100
4 | [N-]=[N+]=NC1(Cc2ccccc2)C(=O)c2cccc3c2N(CCC3)C1=O (stereo not given) | > 100
5 | O=c1oc2ccccc2cc1-c1cc2ccccn2c1 | > 100
6 | COC(=O)c1c(O)ccc2c1c1c(n2Cc2cc(OC)cc(OC)c2)C(=O)c2ccccc2C1 | > 100
7 | O=C(N/N=C(\c1ccccc1)c1ccccn1)NC1CCCCC1 | > 100
8 | CC(=O)CCn1c(=S)sc2ccccc21 | > 100
9 | NC(N)=NCCN1CC2CCC(CC2)C1 | > 100
10 | COc1cc(OC)c2nc(C)c(CCCl)c(Cl)c2c1 | > 100
11 | COc1cc(Nc2nc3ccccc3nc2C(=O)O)cc(OC)c1OC | > 100
12 | O=[N+]([O-])c1cccc(C2=NN(c3ccccc3)C[N+](c3ccc(Br)cc3)=N2)c1 | > 100

Test system: MDA-MB-231 breast
Test: NCI anticancer screen, dose series, 48 h

Row | SMILES | TGI [µM]
13 | O=[N+]([O-])C[C@@]12O[C@]3(O)C4C5CC(C6C5C3C61)C42 (stereo not given in full) | > 100
14 | CN(CCSCCN(C)C(=O)OC(C)(C)C)C(=O)OC(C)(C)C | > 100
15 | CO[C@@]12C[C@@H](C)C3=CCC(C)=C3CC1=C(C)C(=O)O2 | > 100
16 | CC1(C)[C@@H](Cn2ccc(=O)[nH]c2=O)CC[C@@]1(C)CO | > 100
17 | O=C1/C(=C/c2ccc(Br)s2)NC(=S)N1c1ccccc1 | > 100
18 | CC(C)(C)OC(=O)N(CCCCN(CCCNC(=O)C(F)(F)F)C(=O)OC(C)(C)C)CCCNC(=O)C(F)(F)F | > 100
19 | C=CCCON(C(=O)OC(C)(C)C)C(C)(C)C | > 100
20 | CCOC(=O)Nc1[nH]cc(-c2ccccc2)c1C#N | > 100
21 | O=c1oc2ccccc2cc1-c1cc2ccccn2c1 | > 100
22 | COC(=O)c1c(O)ccc2c1c1c(n2Cc2cc(OC)cc(OC)c2)C(=O)c2ccccc2C1 | 91.6
23 | O=C(N/N=C(\c1ccccc1)c1ccccn1)NC1CCCCC1 | > 100
24 | CC(=O)CCn1c(=S)sc2ccccc21 | > 100
25 | NC(N)=NCCN1CC2CCC(CC2)C1 | > 100
26 | COc1cc(OC)c2nc(C)c(CCCl)c(Cl)c2c1 | > 100
27 | COc1cc(Nc2nc3ccccc3nc2C(=O)O)cc(OC)c1OC | > 100

Test system: SNB-75 CNS
Test: NCI anticancer screen, dose series, 48 h

Row | SMILES | TGI [µM]
28 | O=[N+]([O-])C[C@@]12O[C@]3(O)C4C5CC(C6C5C3C61)C42 (stereo not given in full) | > 100
29 | Cc1ccc(/C=N/Nc2cc(C)c3cccc(C)c3n2)s1 | > 100
30 | CO/N=C(\C(=O)OC(=NC1CCCCC1)NC1CCCCC1)c1csc(NC(c2ccccc2)(c2ccccc2)c2ccccc2)n1 | > 10
31 | CCCC(=O)NC(NC1CCCCC1)(C(=O)OCC)C(F)(F)F (stereo not given) | > 100
32 | Cc1c2n(c(=O)[nH]c1=O)C1OC(CO)C(O2)C1O (stereo not given) | > 100
33 | CN(CCSCCN(C)C(=O)OC(C)(C)C)C(=O)OC(C)(C)C | > 100
34 | CC1(C)/C(=N\NC(N)=O)C2CCC1C2 (stereo not given) | > 100
35 | CO[C@@]12C[C@@H](C)C3=CCC(C)=C3CC1=C(C)C(=O)O2 | > 100
36 | CC1(C)[C@@H](Cn2ccc(=O)[nH]c2=O)CC[C@@]1(C)CO | > 100
37 | CC(C)(C)OC(=O)N(CCCCN(CCCNC(=O)C(F)(F)F)C(=O)OC(C)(C)C)CCCNC(=O)C(F)(F)F | > 100
38 | C=CCCON(C(=O)OC(C)(C)C)C(C)(C)C | > 100
39 | CCOC(=O)Nc1[nH]cc(-c2ccccc2)c1C#N | > 100
40 | [N-]=[N+]=NC1(Cc2ccccc2)C(=O)c2cccc3c2N(CCC3)C1=O (stereo not given) | > 100
41 | O=c1oc2ccccc2cc1-c1cc2ccccn2c1 | > 100
42 | COC(=O)c1c(O)ccc2c1c1c(n2Cc2cc(OC)cc(OC)c2)C(=O)c2ccccc2C1 | 34.5
43 | O=C(N/N=C(\c1ccccc1)c1ccccn1)NC1CCCCC1 | > 100
44 | CC(=O)CCn1c(=S)sc2ccccc21 | > 100
45 | NC(N)=NCCN1CC2CCC(CC2)C1 | 98.7
